The structures appear in SMILES notation. Calls of active or inactive are those of the source. The rule behind the calls is not given here.

Our source for the carcinogen call values is PubChem BioAssay AID1259411 (Chemical Carcinogenesis Research Information System (CCRIS), 2018).

In the data set the test system is rodent carcinogenicity bioassays, tumor incidence. The data set can be described thus: CCRIS carcinogenicity studies. The method in brief: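 NCI-built, expert-reviewed records of carcinogenicity and related test outcomes (mutagenicity, tumor promotion/inhibition) compiled from published and report sources, historical span 1985-2011, not updated.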

As to `CN(C=O)N=O`, the carcinogen call (Species: HAMSTER, Strain/Sex: SYRIAN/FEMALE, Route: GAVAGE, Dose: 0, 0.6 MG IN CORN OIL 1/WK FOR 15 WK (STUDY DURATION: 30 WK)) was “inactive; negative”; the carcinogen call (Species: HAMSTER, Strain/Sex: SYRIAN/MALE, Route: GAVAGE, Dose: 0, 0.6 MG IN CORN OIL 1/WK FOR 15 WK (STUDY DURATION: 35 WK), Tumor Site: Type of Lesion: FORESTOMACH: TUMOR) was “active; positive”; the carcinogen call (Species: RAT, Strain/Sex: F344/FEMALE, Route: GAVAGE, Dose: 0, 0.6 MG IN CORN OIL 2/WK FOR 20 WK (STUDY DURATION: 40 WK), Tumor Site: Type of Lesion: FORESTOMACH: TUMOR, ESOPHAGUS: TUMOR) is “active; positive”; the carcinogen call (Species: RAT, Strain/Sex: F344/MALE, Route: GAVAGE, Dose: 0, 0.6 MG IN CORN OIL 2/WK FOR 20 WK (STUDY DURATION: 40 WK), Tumor Site: Type of Lesion: FORESTOMACH: TUMOR) is “active; positive”.
With `CCOC(=O)C(C)Oc1ccc(Oc2nc3ccc(Cl)cc3o2)cc1` (centres undefined), the carcinogen call (Species: Mouse, Strain/Sex: Strain not given in source/Female (50/Group), Route: Oral, Dose: 0, 2.5, 10, 40 ppm in diet for 24 mo, study duration 24 mo, Dose: 0, 2.5, 10, 40 ppm in diet for 24 mo, study duration 24 mo) was “inactive; negative”; the carcinogen call (Species: Mouse, Strain/Sex: Strain not given in source/Male (50/Group), Route: Oral, Dose: 0, 2.5, 10, 40 ppm in diet for 24 mo, study duration 24 mo, Dose: 0, 2.5, 10, 40 ppm in diet for 24 mo, study duration 24 mo) was “inactive; negative”; the carcinogen call (Species: Rat, Strain/Sex: Strain not given in source/Female (60/Group), Route: Oral, Dose: 0, 5, 30, 180 ppm (0; 0.33; 2.00; 11.87 mg/kg) in diet for up to 28 mo, study duration 28 mo, Dose: 0, 5, 30, 180 ppm (0; 0.33; 2.00; 11.87 mg/kg) in diet for up to 28 mo, study duration 28 mo) was “inactive; negative”; the carcinogen call (Species: Rat, Strain/Sex: Strain not given in source/Male (60/Group), Route: Oral, Dose: 0, 5, 30, 180 ppm (0; 0.26; 1.58; 9.43 mg/kg) in diet for up to 28 mo, study duration 28 mo, Dose: 0, 5, 30, 180 ppm (0; 0.26; 1.58; 9.43 mg/kg) in diet for up to 28 mo, study duration 28 mo) is “inactive; negative”.
With `CCOP(=O)=O.CCOP(=O)=O.CCOP(=O)=O.[Al+3]`, the carcinogen call was “inactive; negative” (Species: Mouse, Strain/Sex: CD-1/Female (60/Group), Route: Oral); “inactive; negative” (Species: Mouse, Strain/Sex: CD-1/Male (60/Group), Route: Oral); “active; positive. (department of pesticides regulation reviewer described as a possible” (Species: Rat, Strain/Sex: CD Sprague-Dawley/Male (80/Group), Route: Oral, Dose: 0, 88, 348, 1372 mg/kg/day in diet for 24 mo, study duration 24 mo, Dose: 0, 88, 348, 1372 mg/kg/day in diet for 24 mo, study duration 24 mo, Tumor Site: Type of Lesion: Adrenal medulla: pheochromocytoma (5/80, 7/79. 15/81, 16/81). Urinary bladder: Carcinoma and papilloma combined (1/78 in); “inactive; negative” (Species: Rat, Strain/Sex: CD Sprague-Dawley/Male (80/Group), Route: Oral, Dose: 0, 117, 450, 1786 mg/kg/day in diet for 24 mo, study duration 24 mo, Dose: 0, 117, 450, 1786 mg/kg/day in diet for 24 mo, study duration 24 mo).
For `[Be]=[O]`, for the setting “Species: RABBIT, Route: INTRAVENOUS, INTRAMEDULLARY, Tumor Site: Type of Lesion: BONE: OSTEOSARCOMA”, the carcinogen call was “active; positive”.
`CC(=O)OCc1c2ccccc2c2ccc3cccc4ccc1c2c43`: for the setting “Species: MOUSE, Strain/Sex: B6C3F1/MALE, Route: INTRAPERITONEAL, Dose: 0, 0.0025, 0.005 UMOL/G ONCE AT 12 DAYS OF AGE (STUDY DURATION: 10 MO), Dose: 0, 0.0025, 0.005 UMOL/G ONCE AT 12 DAYS OF AGE (STUDY DURATION: 10 MO), Tumor Site: Type of Lesion: LIVER: HEPATOMA”, the carcinogen call is “active; positive”.
